{"source": "patent US6521653B2", "about": "(priority 1995, dated 2003)", "key": {"Penicillium brevicaule": {"system": "Penicillium brevicaule", "test": "Material protection test (MIC on malt extract agar)", "assay_type": "cell-based", "settings": "336 h, two weeks at 28° C., 60 to 70% relative humidity, read-out: Minimal inhibitory concentration (MIC value) Penicillium brevicaule", "procedure": "(§1) active compounds of the invention are added at concentrations of 0.1 mg/l to 5000 mg/l to an agar prepared with malt extract. After the agar has solidified, it is infected with pure cultures of Penicillium brevicaule, Chaetomium globosum and Aspergillus niger. After storage for two weeks at 28° C. and 60 to 70% relative humidity, the minimal inhibitory concentration (MIC value) is determined. The MIC value characterizes the lowest concentration of active compound at which there is no growth of the microbial species used."}, "Aspergillus niger": {"system": "Aspergillus niger", "test": "Material protection test (MIC on malt extract agar)", "assay_type": "cell-based", "settings": "336 h, two weeks at 28° C., 60 to 70% relative humidity, read-out: Minimal inhibitory concentration (MIC value) Aspergillus niger", "procedure": "as §1"}, "Chaetomium globosum": {"system": "Chaetomium globosum", "test": "Material protection test (MIC on malt extract agar)", "assay_type": "cell-based", "settings": "336 h, two weeks at 28° C., 60 to 70% relative humidity, read-out: Minimal inhibitory concentration (MIC value) Chaetomium globosum", "procedure": "as §1"}, "Phytophthora infestans": {"system": "Phytophthora infestans", "test": "whole plant or invertebrate", "assay_type": "in vivo", "settings": "for pest or weed control at 50 ppm: Phytophthora infestans, in Solanum lycopersicum, 72 h, read-out: Efficiency in %, based on the untreated control at an active compound concentration of 50 ppm; for Efficiency in %, based on the untreated control at an active compound concentration of 100 ppm: tomato, protective spray, evaluation 3 days after inoculation"}, "Plasmopara viticola": {"system": "Plasmopara viticola", "test": "Plasmopara test (grapevines)/protective", "assay_type": "in vivo", "settings": "protective spray, evaluation 6 days after inoculation", "procedure": "Plasmopara Test (Grapevines)/Protective\nSolvent: 4.7 parts by weight of acetone\nEmulsifier: 0.3 parts by weight of alkylaryl polyglycol ether\nTo obtain an expedient preparation of active compound, 1 part by weight of active compound is mixed with the amounts of solvent and emulsifier cited and the concentrate is diluted with water to the desired concentration.\nTo test for protective activity, young plants are sprayed with the active compound preparation until dew moist. After the sprayed coating has dried on, the plants are inoculated with an aqueous spore suspension of Plasmopara viticola and then remain for 1 day in a moist chamber at 20 to 22° C. and 100% relative humidity. The plants are then set up for 5 days in a greenhouse at 21° C. and approximately 90% relative humidity. The plants are then moistened and placed in a moist chamber for 1 day.\nThe evaluation is performed 6 days after the inoculation. In the evaluation, 0% denotes an efficiency corresponding to that of the untreated control, while an efficiency of 100% denotes that no contamination is observed."}}, "data": [{"smiles": "Cc1noc(C)c1C(=O)n1nnc2cc3c(cc21)OC(F)(F)C(F)(F)O3", "values": [{"measurement": "MIC", "setting": "Penicillium brevicaule", "result": 200, "unit": "µg/mL"}, {"measurement": "MIC", "setting": "Aspergillus niger", "result": 400, "unit": "µg/mL"}, {"measurement": "MIC", "setting": "Chaetomium globosum", "result": 100, "unit": "µg/mL"}]}, {"smiles": "Cc1noc(C)c1S(=O)(=O)n1nnc2ccccc21", "values": [{"measurement": "pest or weed control at 50 ppm", "setting": "Phytophthora infestans", "result": 97, "unit": "%"}]}, {"smiles": "Cc1oncc1S(=O)(=O)n1nnc2c(Br)cc(C(F)(F)F)cc21", "values": [{"measurement": "pest or weed control at 50 ppm", "setting": "Phytophthora infestans", "result": 98, "unit": "%"}]}, {"smiles": "Cc1onc(N)c1S(=O)(=O)n1nnc2cc3c(cc21)OC(F)(F)O3", "values": [{"measurement": "pest or weed control at 50 ppm", "setting": "Phytophthora infestans", "result": 97, "unit": "%"}]}, {"smiles": "Cc1ccc2c(c1)nnn2S(=O)(=O)c1c(C)noc1C", "values": [{"measurement": "pest or weed control at 50 ppm", "setting": "Phytophthora infestans", "result": 97, "unit": "%"}]}, {"smiles": "Cc1noc(C)c1S(=O)(=O)n1nnc2cc([N+](=O)[O-])ccc21", "values": [{"measurement": "pest or weed control at 50 ppm", "setting": "Phytophthora infestans", "result": 100, "unit": "%"}]}, {"smiles": "Cc1noc(C)c1S(=O)(=O)n1nnc2cc(Cl)ccc21", "values": [{"measurement": "pest or weed control at 50 ppm", "setting": "Phytophthora infestans", "result": 100, "unit": "%"}]}, {"smiles": "Cc1onc(N)c1S(=O)(=O)n1nnc2cc(Cl)ccc21", "values": [{"measurement": "pest or weed control at 50 ppm", "setting": "Phytophthora infestans", "result": 97, "unit": "%"}]}, {"smiles": "Cc1oncc1S(=O)(=O)n1nnc2cc3c(cc21)OC(F)(F)C(F)(F)O3", "note": "[drawing 93]", "values": [{"measurement": "MIC", "setting": "Penicillium brevicaule", "result": 200, "unit": "µg/mL"}, {"measurement": "MIC", "setting": "Aspergillus niger", "result": 200, "unit": "µg/mL"}, {"measurement": "MIC", "setting": "Chaetomium globosum", "result": 100, "unit": "µg/mL"}]}, {"smiles": "Cc1noc(C)c1S(=O)(=O)n1nnc2cc3c(cc21)OC(F)(F)C(F)(F)O3", "note": "[drawing 95]", "values": [{"measurement": "Efficiency in %, based on the untreated control at an active compound concentration of 100 ppm", "setting": "Phytophthora infestans", "result": 94, "unit": "%"}]}, {"smiles": "Cc1noc(C)c1S(=O)(=O)n1nnc2cc3c(cc21)OC(F)(F)O3", "note": "[drawing 96]", "values": [{"measurement": "Efficiency in %, based on the untreated control at an active compound concentration of 100 ppm", "setting": "Phytophthora infestans", "result": 94, "unit": "%"}]}, {"smiles": "Cc1noc(C)c1S(=O)(=O)n1nnc2c(Br)cc(C(F)(F)F)cc21", "note": "[drawing 97]", "values": [{"measurement": "Efficiency in %, based on the untreated control at an active compound concentration of 100 ppm", "setting": "Phytophthora infestans", "result": 95, "unit": "%"}]}, {"smiles": "Cc1oncc1S(=O)(=O)n1nnc2cc3c(cc21)OC(F)(F)C(F)(F)O3", "note": "[drawing 98]", "values": [{"measurement": "Efficiency in %, based on the untreated control at an active compound concentration of 100 ppm", "setting": "Phytophthora infestans", "result": 94, "unit": "%"}]}, {"smiles": "Cc1oncc1S(=O)(=O)n1nnc2cc3c(cc21)OC(F)(F)O3", "note": "[drawing 99]", "values": [{"measurement": "Efficiency in %, based on the untreated control at an active compound concentration of 100 ppm", "setting": "Phytophthora infestans", "result": 99, "unit": "%"}]}, {"smiles": "Cc1noc(C)c1S(=O)(=O)n1nnc2cc3c(cc21)OC(F)(F)C(F)(F)O3", "note": "[drawing 100]", "values": [{"measurement": "pest or weed control at 50 ppm", "setting": "Phytophthora infestans", "result": 95, "unit": "%"}]}, {"smiles": "Cc1noc(C)c1S(=O)(=O)n1nnc2cc3c(cc21)OC(F)(F)O3", "note": "[drawing 101]", "values": [{"measurement": "pest or weed control at 50 ppm", "setting": "Phytophthora infestans", "result": 99, "unit": "%"}]}, {"smiles": "Cc1noc(C)c1S(=O)(=O)n1nnc2c(Br)cc(C(F)(F)F)cc21", "note": "[drawing 102]", "values": [{"measurement": "pest or weed control at 50 ppm", "setting": "Phytophthora infestans", "result": 89, "unit": "%"}]}, {"smiles": "Cc1oncc1S(=O)(=O)n1nnc2cc3c(cc21)OC(F)(F)O3", "note": "[drawing 103]", "values": [{"measurement": "pest or weed control at 50 ppm", "setting": "Phytophthora infestans", "result": 100, "unit": "%"}]}, {"smiles": "Cc1noc(C)c1S(=O)(=O)n1nnc2cc3c(cc21)OC(F)(F)C(F)(F)O3", "note": "[drawing 111]", "values": [{"measurement": "Efficiency in %, based on the untreated control at an active compound concentration of 100 ppm", "setting": "Plasmopara viticola", "result": 100, "unit": "%"}]}, {"smiles": "Cc1noc(C)c1S(=O)(=O)n1nnc2cc3c(cc21)OC(F)(F)O3", "note": "[drawing 112]", "values": [{"measurement": "Efficiency in %, based on the untreated control at an active compound concentration of 100 ppm", "setting": "Plasmopara viticola", "result": 100, "unit": "%"}]}, {"smiles": "Cc1oncc1S(=O)(=O)n1nnc2cc3c(cc21)OC(F)(F)C(F)(F)O3", "note": "[drawing 113]", "values": [{"measurement": "Efficiency in %, based on the untreated control at an active compound concentration of 100 ppm", "setting": "Plasmopara viticola", "result": 100, "unit": "%"}]}, {"smiles": "Cc1oncc1S(=O)(=O)n1nnc2cc3c(cc21)OC(F)(F)O3", "note": "[drawing 114]", "values": [{"measurement": "Efficiency in %, based on the untreated control at an active compound concentration of 100 ppm", "setting": "Plasmopara viticola", "result": 100, "unit": "%"}]}]}
